Our source for the T/C values is PubChem BioAssay AID248 (DTP/NCI, 2004).

Toxic doses and inconclusive results are not listed.

This test concerns L1210 leukemia ip in BDF1 mice, survival T/C. Description: NCI In Vivo Anticancer Drug Screen. Data for tumor model L1210 Leukemia (intraperitoneal) in B6D2F1 (BDF1) mice. The settings on record: endpoint: mean survival time, higher = longer survival. Put shortly: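 Mice bearing the transplanted tumor received compound or vehicle. Survival of the treated group was divided by that of the vehicle-treated control group to give the ratio.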

Setting [1] is: dose: 75.0 mg/kg/injection, schedule: Q01DX001 (ip), vehicle: other.
Where [2] appears, read: dose: 150.0 mg/kg/injection, schedule: Q01DX001 (ip), vehicle: other.
Where [3] appears, read: dose: 200.0 mg/kg/injection, schedule: Q01DX001 (ip), vehicle: carboxymethylcellulose (CMC).
Setting [4] is: dose: 100.0 mg/kg/injection, schedule: Q01DX009 (ip), vehicle: saline.
[5] abbreviates: dose: 100.0 mg/kg/injection, schedule: Q04DX003 (ip), vehicle: saline.
Setting [6] is: dose: 200.0 mg/kg/injection, schedule: Q01DX009 (ip), vehicle: saline.
[7] abbreviates: dose: 400.0 mg/kg/injection, schedule: Q01DX009 (ip), vehicle: saline.
The mark [8] stands for this setting: dose: 100.0 mg/kg/injection, schedule: Q01DX001 (ip), vehicle: saline.
The mark [9] stands for this setting: dose: 200.0 mg/kg/injection, schedule: Q01DX001 (ip), vehicle: saline.
Setting [10] is: dose: 100.0 mg/kg/injection, schedule: Q04DX003 (ip), vehicle: saline with Tween-80.
The mark [11] stands for this setting: dose: 400.0 mg/kg/injection, schedule: Q04DX003 (ip), vehicle: saline with Tween-80.
Setting [12] is: dose: 200.0 mg/kg/injection, schedule: Q04DX003 (ip), vehicle: saline with Tween-80.
The mark [13] stands for this setting: dose: 100.0 mg/kg/injection, schedule: Q01DX001 (ip), vehicle: carboxymethylcellulose (CMC).
Setting [14] is: dose: 100.0 mg/kg/injection, schedule: Q04DX003 (ip), vehicle: Klucel (hydroxypropylcellulose) (HPC).
Setting [15] is: dose: 200.0 mg/kg/injection, schedule: Q04DX003 (ip), vehicle: Klucel (hydroxypropylcellulose) (HPC).

For `Cc1ccc(Nc2n[nH]c(=S)s2)cc1F`, the T/C runs as follows: under setting [1], 100 % of control; under setting [2], 100 % of control; (dose: 300.0 mg/kg/injection, schedule: Q01DX001 (ip), vehicle: other) 100 % of control.

`C=CCCCCCCCCC(=O)NCC1CCCCO1` (configuration not stated): the T/C runs as follows: (dose: 100.0 mg/kg/injection, schedule: Q01DX009 (ip), vehicle: saline with Tween-80) 94 % of control; (dose: 200.0 mg/kg/injection, schedule: Q01DX009 (ip), vehicle: saline with Tween-80) 97 % of control; (dose: 400.0 mg/kg/injection, schedule: Q01DX009 (ip), vehicle: saline with Tween-80) 101 % of control.

Regarding `C1=Cc2ccccc2Sc2ccccc21`, the T/C (dose: 50.0 mg/kg/injection, schedule: Q01DX001 (ip), vehicle: carboxymethylcellulose (CMC)) is 98 % of control and the T/C under setting [3] is 98 % of control.

Consider `NC(=O)CC(N)c1nn[nH]n1` (configuration not stated), for which the T/C is, setting by setting: under setting [4], 89 % of control; under setting [5], 97 % of control; under setting [6], 98 % of control; (dose: 200.0 mg/kg/injection, schedule: Q04DX003 (ip), vehicle: saline) 100 % of control; under setting [7], 102 % of control; (dose: 400.0 mg/kg/injection, schedule: Q04DX003 (ip), vehicle: saline) 103 % of control.

With `CCN(CC)CCOC(=O)C(c1ccccc1)c1ccccc1`, the T/C (dose: 75.0 mg/kg/injection, schedule: Q01DX001 (ip), vehicle: saline) is 104 % of control and the T/C (dose: 150.0 mg/kg/injection, schedule: Q01DX001 (ip), vehicle: saline) was 94 % of control.

`CCCn1cnc2c(=S)nc(N)[nH]c21`: the T/C (dose: 0.94 mg/kg/injection, schedule: Q01DX Z (ip), vehicle: methylcellulose (MC)) was 105 % of control; the T/C (dose: 1.88 mg/kg/injection, schedule: Q01DX Z (ip), vehicle: methylcellulose (MC)) is 122 % of control; the T/C (dose: 3.3 mg/kg/injection, schedule: Q01DX Z (ip), vehicle: methylcellulose (MC)) is 121 % of control; the T/C (dose: 3.75 mg/kg/injection, schedule: Q01DX Z (ip), vehicle: methylcellulose (MC)) was 108 % of control; the T/C (dose: 5.0 mg/kg/injection, schedule: Q01DX Z (ip), vehicle: methylcellulose (MC)) is 152 % of control; the T/C (dose: 7.5 mg/kg/injection, schedule: Q01DX Z (ip), vehicle: methylcellulose (MC)) was 101 % of control. Moreover, the T/C (dose: 15.0 mg/kg/injection, schedule: Q01DX Z (ip), vehicle: methylcellulose (MC)) was 105 % of control.

Regarding `Cc1cc(C)c(S(=O)(=O)O)c(Cc2cccc3ccccc23)c1`, the T/C is 94 % of control (dose: 25.0 mg/kg/injection, schedule: Q01DX009 (ip), vehicle: saline); 102 % of control (dose: 50.0 mg/kg/injection, schedule: Q01DX009 (ip), vehicle: saline); 94 % of control (dose: 50.0 mg/kg/injection, schedule: Q04DX003 (ip), vehicle: saline); 93 % of control under setting [8]; 96 % of control under setting [4]; 98 % of control under setting [5]. In addition, the T/C under setting [9] was 88 % of control.

Turning to `CCCC1(c2ccccc2)NC(=O)NC1=O` (configuration not stated), the T/C was 96 % of control under setting [8] and 102 % of control under setting [9].

Consider `COc1ccc(/C=N/NC(=O)CNC(=O)NCc2ccccc2)cc1`, for which the T/C is 90 % of control (dose: 100.0 mg/kg/injection, schedule: Q01DX009 (ip), vehicle: Klucel (hydroxypropylcellulose) (HPC)) and 93 % of control (dose: 200.0 mg/kg/injection, schedule: Q01DX009 (ip), vehicle: Klucel (hydroxypropylcellulose) (HPC)).

For the molecule `c1ccc2c(c1)C1C3CCC(C3)C21` (configuration not stated), the T/C is, setting by setting: under setting [10], 98 % of control; under setting [11], 98 % of control.

On to `CCOC(=O)C(CCP(=O)(OCC)OCC)P(=O)(OCC)OCC` (configuration not stated), for which the T/C was 99 % of control (dose: 12.5 mg/kg/injection, schedule: Q04DX002 (ip), vehicle: saline); 96 % of control (dose: 25.0 mg/kg/injection, schedule: Q04DX002 (ip), vehicle: saline); 115 % of control (dose: 50.0 mg/kg/injection, schedule: Q04DX002 (ip), vehicle: saline); 101 % of control under setting [8]; 95 % of control under setting [9]; 98 % of control (dose: 400.0 mg/kg/injection, schedule: Q01DX001 (ip), vehicle: saline).

For `CCCCCCCCCCCCOCCCN`, the T/C reads like this: (dose: 12.5 mg/kg/injection, schedule: Q01DX009 (ip), vehicle: saline with Tween-80) 98 % of control; (dose: 12.5 mg/kg/injection, schedule: Q04DX003 (ip), vehicle: saline with Tween-80) 92 % of control; (dose: 25.0 mg/kg/injection, schedule: Q01DX009 (ip), vehicle: saline with Tween-80) 90 % of control; (dose: 25.0 mg/kg/injection, schedule: Q04DX003 (ip), vehicle: saline with Tween-80) 90 % of control; (dose: 50.0 mg/kg/injection, schedule: Q04DX003 (ip), vehicle: saline with Tween-80) 92 % of control.

Turning to `N#CCC(=O)Cc1ccccc1[N+](=O)[O-]`, the T/C reads like this: under setting [10], 95 % of control; under setting [12], 100 % of control; under setting [11], 94 % of control.

As for `Cc1cc2oc(=O)cc(C)c2c(=O)o1`, the T/C was 97 % of control under setting [13] and 92 % of control under setting [3].

`Nc1nc(N)nc(-c2ccccc2N=NN2CCCCC2)n1`: the T/C was 101 % of control under setting [14]; 94 % of control under setting [15]; 95 % of control (dose: 400.0 mg/kg/injection, schedule: Q04DX003 (ip), vehicle: Klucel (hydroxypropylcellulose) (HPC)).

With `CN1C(=O)CC(NC(=O)OCc2ccccc2)C1=O` (configuration not stated), the T/C is 95 % of control under setting [10], 103 % of control under setting [12] and 96 % of control under setting [11].

As for `CC(=O)NC1CCCC(O)C1` (configuration not stated), the T/C under setting [4] was 87 % of control, the T/C under setting [6] is 92 % of control and the T/C under setting [7] is 92 % of control.

As to `CCOC(=O)c1cnc(NN)[nH]c1=O`, the T/C is, setting by setting: under setting [14], 97 % of control; under setting [15], 97 % of control.

In the case of `CCOC(=O)c1ccc(NS(=O)(=O)c2ccc(NC(C)=O)cc2)cc1`, the T/C by setting is: (dose: 100.0 mg/kg/injection, schedule: Q04DX002 (ip), vehicle: Klucel (hydroxypropylcellulose) (HPC)) 88 % of control; (dose: 200.0 mg/kg/injection, schedule: Q04DX002 (ip), vehicle: Klucel (hydroxypropylcellulose) (HPC)) 94 % of control; (dose: 400.0 mg/kg/injection, schedule: Q04DX002 (ip), vehicle: Klucel (hydroxypropylcellulose) (HPC)) 103 % of control.

On to `O=[N+]([O-])c1ccccc1C1CCCCC1`, for which the T/C reads like this: (dose: 100.0 mg/kg/injection, schedule: Q04DX002 (ip), vehicle: saline with Tween-80) 89 % of control; (dose: 200.0 mg/kg/injection, schedule: Q04DX002 (ip), vehicle: saline with Tween-80) 93 % of control; (dose: 400.0 mg/kg/injection, schedule: Q04DX002 (ip), vehicle: saline with Tween-80) 100 % of control.

On to `CC/C(C)=N/NS(C)(=O)=O`, for which the T/C is, setting by setting: under setting [1], 103 % of control; under setting [2], 97 % of control.

Turning to `O=C1CCn2c1c(O)c1ccccc1c2=O`, the T/C is 97 % of control under setting [8] and 97 % of control under setting [9].

As to `CCCC(=O)CCN(C)Cc1ccccc1`, the T/C under setting [8] was 103 % of control.

With `CC(C)C1c2ccccc2C(=O)C1C(N)=O` (configuration not stated), the T/C under setting [13] was 90 % of control; the T/C under setting [3] is 100 % of control; the T/C (dose: 400.0 mg/kg/injection, schedule: Q01DX001 (ip), vehicle: carboxymethylcellulose (CMC)) was 93 % of control.
